Experimental data: patent publication US8993756B2 (Merck Sharp & Dohme Corp., priority 2011, dated 2015)

Experiments:
[1] = target: JAK3 (Homo sapiens (Human), UniProt P52333); assay: Jak Biochemical HTRF Assay (JAK3); settings: recombinant GST-tagged catalytic domain, [ATP] 2.9 μM
Protocol: (§1) Biological Assays Jak Biochemical HTRF Assay Protocol
The ability of compounds to inhibit the activity of JAK1, JAK2, JAK3, and Tyk2 was measured using a recombinant purified GST-tagged catalytic domain for each enzyme (Invitrogen JAK1 #M4290, JAK2 #M4290, JAK3 #M4290, Tyk2 #M4290) in an HTRF format biochemical assay. […] Subsequent reagent additions employed an Agilent Bravo. […] After equilibration, 2 μL of 10×ATP in 1× assay buffer was added to initiate the kinase reaction and the plates were shaken and then incubated at room temperature for 120 minutes. At the end of the incubation, 20 μL of 2× stop buffer (streptavidin-Dylight 650 (Thermo #84547B100 mL), Eu-tagged pY20 antibody (Perkin Elmer #AD0067), EDTA, HEPES, and Triton) was added to quench the reaction. […] After normalization to untreated controls, the percent inhibition of the HTRF signal at each compound concentration was calculated. The plot of percent inhibition versus the log of compound concentration was fit with a 4-parameter dose response equation to calculate IC50 values.

[2] = target: JAK2 (Homo sapiens (Human), UniProt O60674); assay: Jak Biochemical HTRF Assay (JAK2); settings: recombinant GST-tagged catalytic domain, [ATP] 8.5 μM
Chain of JAK2 (O60674 849-1124): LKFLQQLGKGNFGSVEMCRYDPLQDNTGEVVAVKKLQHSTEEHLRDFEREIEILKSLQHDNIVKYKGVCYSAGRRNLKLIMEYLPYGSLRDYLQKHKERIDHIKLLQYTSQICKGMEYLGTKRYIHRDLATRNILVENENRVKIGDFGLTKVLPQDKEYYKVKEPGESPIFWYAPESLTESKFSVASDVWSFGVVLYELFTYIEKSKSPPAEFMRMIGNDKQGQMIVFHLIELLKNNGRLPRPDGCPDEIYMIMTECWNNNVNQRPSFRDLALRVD
Protocol: as §1
The ability of compounds to inhibit the activity of JAK1, JAK2, JAK3, and Tyk2 was measured using a recombinant purified GST-tagged catalytic domain for each enzyme (Invitrogen JAK1 #M4290, JAK2 #M4290, JAK3 #M4290, Tyk2 #M4290) in an HTRF format biochemical assay. […] The basic assay protocol is as follows: First, 250 nL of diluted compounds in DMSO were dispensed into the wells of a dry 384-well Black plate (Greiner #781076) using a Labcyte Echo 555 acoustic dispenser. Subsequent reagent additions employed an Agilent Bravo. Next, 18 μL of 1.11× enzyme and 1.11× substrate in 1× assay buffer (Invitrogen kinase buffer # PV3189, 2 mM DTT, 0.05% BSA) were added to the wells and shaken and then preincubated for 30 minutes at room temperature to allow compound binding to equilibrate. After equilibration, 2 μL of 10×ATP in 1× assay buffer was added to initiate the kinase reaction and the plates were shaken and then incubated at room temperature for 120 minutes. At the end of the incubation, 20 μL of 2× stop buffer (streptavidin-Dylight 650 (Thermo #84547B100 mL), Eu-tagged pY20 antibody (Perkin Elmer #AD0067), EDTA, HEPES, and Triton) was added to quench the reaction. Plates were shaken and centrifuged and then incubated 60 minutes at room temperature and then read on a Perkin Elmer Envision (λex=337 nm, λem=665 and 615 nm, TRF delay time=20 μs). HTRF signal=10,000*665 nm reading 615 nm reading. After normalization to untreated controls, the percent inhibition of the HTRF signal at each compound concentration was calculated. The plot of percent inhibition versus the log of compound concentration was fit with a 4-parameter dose response equation to calculate IC50 values.

Chain of JAK3 (P52333 822-1111): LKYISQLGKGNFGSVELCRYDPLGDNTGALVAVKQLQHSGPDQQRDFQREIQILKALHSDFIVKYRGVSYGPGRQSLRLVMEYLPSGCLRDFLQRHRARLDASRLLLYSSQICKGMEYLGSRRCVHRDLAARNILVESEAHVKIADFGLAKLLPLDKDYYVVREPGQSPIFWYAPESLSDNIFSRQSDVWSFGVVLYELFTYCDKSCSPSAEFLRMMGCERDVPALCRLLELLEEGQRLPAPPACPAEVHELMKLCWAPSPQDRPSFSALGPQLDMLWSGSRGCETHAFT

Compound | IC50 [1] [nM] | IC50 [2] [nM] | IC50 ([1]; given as range class) [nM] | IC50 ([2]; given as range class) [nM]
CCOC(=O)c1c[nH]c2ncnc(-c3ccccc3F)c12 [Example 1-41, ethyl 4-(2-fluorophenyl)-7H-pyrrolo[2,3-d]pyrimidine-5-carboxylate] | 7.5 | 168 |  | 
CCOC(=O)c1c[nH]c2ncnc(-c3cccc4c3CCCNC4=O)c12 [Example 1-68, ethyl 4-(1-oxo-2,3,4,5-tetrahydro-1H-2-benzazepin-6-yl)-7H-pyrrolo[2,3-d]pyrimidine-5-carboxylate] |  |  | 10 to 500 | > 500
CCOC(=O)c1c[nH]c2ncnc(-c3ccc4ccccc4c3)c12 [Example 1-40, ethyl 4-naphthalen-2-yl-7H-pyrrolo[2,3-d]pyrimidine-5-carboxylate] | 8.8 | 186 |  | 
CCOC(=O)c1c[nH]c2ncnc(-c3ccc4[nH]nc(C(F)(F)F)c4c3)c12 [Example 1-72, ethyl 4-[3-(trifluoromethyl)-1H-indazol-5-yl]-7H-pyrrolo[2,3-d]pyrimidine-5-carboxylate] |  |  | 10 to 500 | > 500
CCOC(=O)c1c[nH]c2ncnc(-c3cccc(NC(=O)NC#N)c3)c12 [Example 9-2, ethyl 4-(3-(3-cyanoureido)phenyl)-7H-pyrrolo[2,3-d]pyrimidine-5-carboxylate] |  |  | 10 to 500 | 10 to 500
CCOC(=O)c1c[nH]c2ncnc(C3=CCCOC3)c12 [Example 1-88, ethyl 4-(5,6-dihydro-2H-pyran-3-yl)-7H-pyrrolo[2,3-d]pyrimidine-5-carboxylate] |  |  | 10 to 500 | > 500
CCOC(=O)c1c[nH]c2ncnc(-c3ccccc3Cl)c12 [Example 1-43, ethyl 4-(2-chlorophenyl)-7H-pyrrolo[2,3-d]pyrimidine-5-carboxylate] |  |  | 10 to 500 | > 500
CCOC(=O)c1c[nH]c2ncnc(-c3cccc(-c4nc(C#N)ns4)c3)c12 [Example 7-4, Ethyl 4-(3-(cyano-1,2,4-thiadiazol-5-yl)phenyl)-7H-pyrrolo[2,3-d]pyrimidine-5-carboxylate] |  |  | 10 to 500 | > 500
C=C(CNS(C)(=O)=O)C(=O)Nc1cccc(-c2ncnc3[nH]cc(C(=O)OCC)c23)c1 [Example 13-1, Ethyl 4-(3-(2-(methylsulfonamidomethyl)acrylamido)phenyl)-7H-pyrrolo[2,3-d]pyrimidine-5-carboxylate] | 0.052 | > 1500 |  | 
CCOC(=O)c1c[nH]c2ncnc(-c3cccc(NC(=O)/C=C/c4ccoc4)c3)c12 [Example 5-22, ethyl 4-(3-{[(2E)-3-furan-3-ylprop-2-enoyl]amino}phenyl)-7H-pyrrolo[2,3-d]pyrimidine-5-carboxylate] |  |  | 10 to 500 | > 500
CCOC(=O)c1c[nH]c2ncnc(-c3cccc(NC(=O)/C(C)=C/CN(C)C)c3)c12 [Example 17, Ethyl 4-(3-{[(2E)-4-(dimethylamino)-2-methylbut-2-enoyl]amino}phenyl)-7H-pyrrolo[2,3-d]pyrimidine-5-carboxylate] | 6.6 | > 1500 |  | 
CCOC(=O)c1c[nH]c2ncnc(-c3ccc4[nH]ccc4c3)c12 [Example 1-53, ethyl 4-(1H-indol-5-yl)-7H-pyrrolo[2,3-d]pyrimidine-5-carboxylate] | 1.5 | 35 |  | 
CCOC(=O)c1c[nH]c2ncnc(-c3cccc(OCC(F)(F)F)c3)c12 [Example 1-21, ethyl 4-[3-(2,2,2-trifluoroethoxy)phenyl]-7H-pyrrolo[2,3-d]pyrimidine-5-carboxylate] | 3.5 | 73 |  | 
CCOC(=O)c1c[nH]c2ncnc(-c3cnn(CCOC)c3)c12 [Example 1-99, ethyl 4-[1-(2-methoxyethyl)-1H-pyrazol-4-yl]-7H-pyrrolo[2,3-d]pyrimidine-5-carboxylate] |  |  | 10 to 500 | > 500
CCOC(=O)c1c[nH]c2ncnc(-c3ccc4cc[nH]c4c3)c12 [Example 1-83, ethyl 4-(1H-indol-6-yl)-7H-pyrrolo[2,3-d]pyrimidine-5-carboxylate] | 9.7 | 137 |  | 
CCOC(=O)c1c[nH]c2ncnc(-c3cccc(NC(=O)CCC(C)=O)c3)c12 [Example 5-7, ethyl 4-{3-[(4-oxopentanoyl)amino]phenyl}-7H-pyrrolo[2,3-d]pyrimidine-5-carboxylate] |  |  | 10 to 500 | > 500
CCOC(=O)c1c[nH]c2ncnc(-c3cccs3)c12 [Example 1-56, ethyl 4-thiophen-2-yl-7H-pyrrolo[2,3-d]pyrimidine-5-carboxylate] |  |  | 10 to 500 | 10 to 500
c1ccc(Oc2cccc(-c3c[nH]c4ncnc(-c5ccccc5)c34)c2)cc1 [Example 32-4, 5-(3-phenoxyphenyl)-4-phenyl-7H-pyrrolo[2,3-d]pyrimidine] |  |  | 10 to 500 | > 500
CCOC(=O)c1c[nH]c2ncnc(-c3cccc(NC(=O)C4=COCCO4)c3)c12 [Example 5-13, ethyl 4-{3-[(5,6-dihydro-1,4-dioxin-2-ylcarbonyl)amino]phenyl}-7H-pyrrolo[2,3-d]pyrimidine-5-carboxylate] |  |  | 10 to 500 | > 500
CCOC(=O)c1c[nH]c2ncnc(-c3ccc4cn[nH]c4c3)c12 [Example 1-76, ethyl 4-(1H-indazol-6-yl)-7H-pyrrolo[2,3-d]pyrimidine-5-carboxylate] |  |  | 10 to 500 | 10 to 500
C=C(F)C(=O)Nc1cc(-c2ncnc3[nH]cc(C(=O)OCC)c23)ccc1F [Example 5-10, ethyl 4-{4-fluoro-3-[(2-fluoroacryloyl)amino]phenyl}-7H-pyrrolo[2,3-d]pyrimidine-5-carboxylate] | 0.013 | > 1500 |  | 
C=C(CF)C(=O)Nc1cccc(-c2ncnc3[nH]cc(C(=O)OCC)c23)c1 [Example 15-1, Ethyl-4-(3-{[2-(fluoromethyl)acryloyl]amino}phenyl)-7H-pyrrolo[2,3-d]pyrimidine-5-carboxylate] | 0.024 | > 1500 |  | 
CCOC(=O)c1c[nH]c2ncnc(-c3cccc(NC(=O)C4=COCC4)c3)c12 [Example 5-40] |  |  | 10 to 500 | > 500
C=C(Cl)C(=O)Nc1cccc(-c2ncnc3[nH]cc(C(=O)OCC)c23)c1 [Example 5-6, ethyl 4-{3-[(2-chloroacryloyl)amino]phenyl}-7H-pyrrolo[2,3-d]pyrimidine-5-carboxylate] | 0.22 | > 1500 |  | 
C=C(C)C(=O)Nc1cc(-c2ncnc3[nH]cc(C(=O)OC)c23)ccc1F [Example 11-1, Methyl 4-{4-fluoro-3-[(2-methylacryloyl)amino]phenyl}-7H-pyrrolo[2,3-d]pyrimidine-5-carboxylate] | 0.4 | > 1500 |  | 
CCOC(=O)c1c[nH]c2ncnc(-c3cccc(NC(=O)/C=C/c4ccco4)c3)c12 [Example 5-32, ethyl 4-(3-{[(2E)-3-furan-2-ylprop-2-enoyl]amino}phenyl)-7H-pyrrolo[2,3-d]pyrimidine-5-carboxylate] |  |  | 10 to 500 | > 500
C=C(C)C(=O)Nc1cccc(-c2ncnc3[nH]cc(-c4ccc(F)cc4)c23)c1 [Example 20-4, N-{3-[5-(4-fluorophenyl)-7H-pyrrolo[2,3-d]pyrimidin-4-yl]phenyl}-2-methylprop-2-enamide] | 1.5 | > 1500 |  | 
CCOC(=O)c1c[nH]c2ncnc(-c3cccc(NC(=O)CC)c3)c12 [Example 4-7, ethyl 4-[3-(propanoylamino)phenyl]-7H-pyrrolo[2,3-d]pyrimidine-5-carboxylate] |  |  | 10 to 500 | > 500
CCOC(=O)c1c[nH]c2ncnc(-c3ccc(COC)c(N)c3)c12 [Example 1-33, ethyl 4-[3-amino-4-(methoxymethyl)phenyl]-7H-pyrrolo[2,3-d]pyrimidine-5-carboxylate] |  |  | 10 to 500 | > 500
CCOC(=O)c1c[nH]c2ncnc(-c3ccc4c(c3)C(=O)NC4)c12 [Example 1-75, ethyl 4-(3-oxo-2,3-dihydro-1H-isoindol-5-yl)-7H-pyrrolo[2,3-d]pyrimidine-5-carboxylate] |  |  | 10 to 500 | > 500
